Test results as given in patent US20250114299A1, “COMBINATION THERAPY INTRAVAGINAL RINGS” (The population Council, Inc., priority 2022, published 2025).
Like-named read-outs stand apart in the source and are kept apart here.

What was measured:
[1] = pKa of DPV (chemical properties); assay type: physicochemical
[2] = system: wild-type HIV-1 strains and HIV-1 strains harboring different resistance-inducing mutations; conditions: Das et al., J. Med Chem., 2004; cited from earlier work
[3] = Solubility of DPV (Form I) in various solvents; assay type: physicochemical

**Q.** For Cc1cc(C)c(Nc2ccnc(Nc3ccc(C#N)cc3)n2)c(C)c1 [DPV, 4-[[4-[(2,4,6-trimethylphenyl)amino]-2-pyrimidinyl]amino]benzonitrile], which pKa [1] is on record?
**A.** 5.8

**Q.** And the “activity against wild-type and resistant HIV-1 strains” value [2]?
**A.** potent activity

**Q.** And the Solubility ([3]; Form I, 0.01M HCl)?
**A.** 0.17 mg/g

**Q.** What about the Solubility ([3]; Form I, 0.1M HCl) of the same compound?
**A.** 0.02 mg/g

**Q.** What about the Solubility ([3]; Form I, 0.1M NaOH) of the same compound?
**A.** 0.001 mg/g

**Q.** And the Solubility ([3]; Form I, Buffer pH 2)?
**A.** 0.095 mg/g

**Q.** What about the Solubility ([3]; Form I, Buffer pH 4) of the same compound?
**A.** 0.0025 mg/g

**Q.** What about the Solubility ([3]; Form I, Buffer pH 6) of the same compound?
**A.** 0.001 mg/g

**Q.** What about the Solubility ([3]; Form I, Buffer pH 8) of the same compound?
**A.** 0.001 mg/g

**Q.** What about the Solubility ([3]; Form I, Buffer pH 10) of the same compound?
**A.** 0.001 mg/g

**Q.** And the Solubility ([3]; Form I, Polyethylene glycol 400)?
**A.** 47.4 mg/g

**Q.** What about the Solubility ([3]; Form I, Propylene glycol) of the same compound?
**A.** 2.69 mg/g

**Q.** What about the Solubility ([3]; Form I, Water) of the same compound?
**A.** 0.001 mg/g

**Q.** What about the “solubility in water” value ([3]; water) of the same compound?
**A.** virtually insoluble in water

**Q.** What about the Solubility ([3]; water, read-out: solubility of dapivirine in water) of the same compound?
**A.** < 1 µg/mL
